In patent US11390629B2, “1,5-disubstituted 1,2,3-triazoles are inhibitors of Rac/Cdc42 GTPases” (UNIVERSITY OF PUERTO RICO, priority 2016, dated 2022):
“Also recorded” adds a separate entry of the source.

Tests used:
[1] = tested on: p38-MAPK, p42/44 MAPK, Akt; test: Western blot of MAPK and Akt signaling, MDA-MB-231; type: cell-based, human; settings: 250 nM, 24 h
Source text: FIGS. 13A, 13B. MAPK and Akt signaling in MDA-MB-231 cells. […] Representative western blots of N=3 are shown.

[2] = tested on: Saccharomyces cerevisiae (expresses only Cdc42); test: Yeast bud polarity and growth; settings: 100 microM
[3] = tested on: GFP-HER2-BM, MDA-MB-468, Hs578t, Mia-PaCa-2, SKOV3, AGS, NCI-N87, SH-SY5Y cells; test: Bright field cell phenotype, other mesenchymal cancer cell lines; type: cell-based, human; settings: 250 or 500 nM, 24 h
Experimental: FIG. 9. Human cancer cell phenotype following MBQ-167 treatment. Triple negative breast cancer (MDA-MB-468), aggressive pancreatic (Mia PaCa-2), ovarian (SKVO3), gastric carcinoma (AGS and NCI-N87) cell lines and a neuroblastoma (SH-SY5Y) cell line were treated with 0, 250 or 500 nM MBQ-167 for 24 h; Representative bright field images are shown for each cell line.
Human breast cancer cells were visualized by bright field microscopy following MBQ-167 treatment. At ≥100 nM, starting at six hours, MBQ-167 induced a loss of polarity in metastatic breast cancer cells. […] On the other hand, non-cancer mammary epithelial MCF10A and epithelial breast cancer MCF-7 cells were resistant to MBQ-167 and remained polarized and attached to each other and the substratum (FIG. 2A).

GFP-MDA-MB-231 cells = test: Annexin V-Cy3-18 staining; type: cell-based, human; settings: 250 or 500 nM, 6 h
Experimental: FIG. 14. Annexin V staining in response to MBQ-167. GFP-MDA-MB-231 cells growing on coverslips were treated with vehicle or MBQ-167 at 250 or 500 nM for 6 h; Cells were fixed in formaldehyde and stained with Annexin V-Cy3-18; Representative fluorescence micrographs are shown; Arrows indicate red fluorescent Annexin V staining at the membranes of apoptotic cells.
Apoptotic cells were detected by fluorescence microscopy of Annexin V-Cy3-18 stained cells as per manufacturer's instructions (Sigma-Aldrich, St Louis, Mo., USA). Briefly, GFP-MDA-MB-231 cells grown on coverslips were treated with vehicle, or 250 or 500 nM MBQ-167 for 6 h and stained with Annexin V-Cy3-18 in binding buffer (10 mM HEPES/NaOH, pH 7.5, 0.14 M NaCl, 2.5 mM CaCl2) for 15 min at room temperature. Coverslips were washed in binding buffer and fixed with 3.7% paraformaldehyde prior to fluorescence microscopy. Images were digitally acquired from an Olympus inverted fluorescence microscope.

Cdc42 [4] = target: T1, Cdc42 (Homo sapiens, UniProt P60953); test: Cdc42 activity (Table 1A); type: cell-based; settings: class by % inhibition at stated concentration
[5] = Liver enzyme assays (ALP, ALT) after necropsy; type: in vivo, nude mice; settings: listed as MBQ-167
Source text: . Mammary fatpad tumors were established in nude mice by inoculating 5×10^5 GFP-HER2-BM cells; […]; FIG. 6B, Representative fluorescence micrographs of lungs, spleens, and kidneys from vehicle or MBQ-167 treated mice following necropsy; […]; Following necropsy, livers were harvested, lysed and subjected to FIG. 6D, ALP activity or FIG. 6E, ALT activity assays; N=4, error bars represent ±S.E.M.
The mice from this study were also examined once a week for potential toxicity. […]. At necropsy, livers were harvested, lysed and subjected to liver enzyme assays as a test for potential toxic effects. […]. Frozen stored livers were thawed and homogenized to measure alkaline phosphatase (ALP) and alanine transaminase (ALT) activities using colorimetric assay kits from Abeam and Cayman Chemicals respectively, as per manufacturer's instructions.

[6] = tested on: MCF10A mammary epithelial cells; test: Cell viability assay (CellTiter 96 / MTT), MCF10A; settings: 120 h
Rac = Rac activation pulldown (p21-binding domain of PAK) and western blot, MDA-MB-231 cells; type: cell-based, human; settings: for decrease in Rac activation: 250 nM, 24 h; for inhibition in Rac activity: 250 or 500 nM, 6 h
[7] = tested on: GFP-HER2-BM mammary fat pad tumors; test: Mammary fat pad tumor growth, GFP-HER2-BM cells in nude mice; type: in vivo; settings: for reduction in tumor growth: 65 days; for Optimal % Change in Tumor Size (% T/C): day 65, control = 100; for Time in Days for Doubling of Tumor size, 2^1: control 8; for Time in Days for Doubling of Tumor size, 2^2: control 14.5; for Time in Days for Doubling of Tumor size, 2^3: control 27.7; for Time in Days for Doubling of Tumor size, 2^4: control 33.3
Experimental: FIGS. 6A-1, 6A-2, 6B, 6C, 6D, 6E. In-vivo efficacy of MBQ-167 in HER2-type breast cancer.
To test the effect of MBQ-167 on mammary tumor progression, nude mice were used to establish mammary fatpad tumors from GFP-HER2-BM cells. One week following mammary tumor establishment, the mice were treated 3× a week with 0, 1, or 10 mg/kg BW MBQ-167 by i.p. for 65 days.
Mice were treated with vehicle (12.5% ethanol, 12.5% Cremophor (Sigma-Aldrich, St. Louis, Mo.), and 75% 1×PBS pH 7.4), or 1 or 10 mg/kg BW MBQ-167 by i.p. injection in a 100 μL volume 3× a wk. Treatments continued until sacrifice at day 65.

STAT3 = test: Western blot of STAT3 phosphorylation (Y705); type: cell-based, human; settings: 24 h, attached and detached MDA-MB-231 and GFP-HER2-BM cells
Source text: FIGS. 12A, 12B. Effect of MBQ-167 on STAT3 activation and cell migration in GFP-HER2-BM metastatic cancer cells.

Cdc42 [8] = target: T1, Cdc42; test: Cdc42 activation pulldown (p21-binding domain of PAK) and western blot, MDA-MB-231 cells; type: cell-based; design: endogenous in cells; host or cells: MDA-MB-231; settings: 24 h, detached cells
[9] = tested on: GFP-MDA-MB-231 mammary fat pad tumors; test: Mammary fat pad tumor growth, GFP-MDA-MB-231 cells in SCID mice; settings: 50 days
Rho = Rho activation pulldown (Rhotekin), GFP-HER2-BM cells; settings: 24 h, listed as MBQ-167

T1 sequence (P60953 whole entry): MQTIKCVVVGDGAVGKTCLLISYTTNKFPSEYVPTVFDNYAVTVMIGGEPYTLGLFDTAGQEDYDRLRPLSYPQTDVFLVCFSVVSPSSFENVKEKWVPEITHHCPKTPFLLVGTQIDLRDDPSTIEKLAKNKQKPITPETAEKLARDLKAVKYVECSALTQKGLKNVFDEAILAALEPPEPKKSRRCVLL

With `CCn1c2ccccc2c2cc(-n3nncc3-c3ccccc3)ccc21` [I-1, 9-ethyl-3-(5-phenyl-1H-1,2,3-triazol-1-yl)-9H-carbazole] as the compound, how does the “effect on p38-MAPK, p42/44 MAPK and Akt activities” value [1] read?
Its value is “did not affect”.

And the “effect on yeast bud polarity and growth” value [2]?
The value was “inhibited yeast bud polarity and growth”.

What about the “cell rounding and detachment phenotype” value [3] of the same compound?
Its value is “induced this phenotype”.

What about the “Annexin V staining” value (GFP-MDA-MB-231 cells) of the same compound?
Its value is “increased Annexin V staining”.

What about the Cdc42 activity (Cdc42 [4]) of the same compound?
Its Cdc42 activity is “A (>50% inhibition at 250 nM)”.

And the “liver ALT activity” value ([5]; 10 mg/kg BW)?
The value was “significantly increased; also recorded: increases”.

And the “liver ALP activity” value ([5]; 1 and 10 mg/kg BW)?
Its value is “does not significantly affect”.

And the GI50 ([6]; Homo sapiens, MCF-10A)?
The GI50 was 350 nM.

What about the “effect on viability of MCF7 and MCF-10A cells” value ([6]; at the GI50 concentrations of the metastatic cells) of the same compound?
Its value is “does not affect the viability”.

What about the “decrease in Rac activation” value (Rac; attached cells) of the same compound?
Its value is roughly 25%.

What about the “decrease in Rac activation” value (Rac; detached cells) of the same compound?
Its value is roughly 75%.

And the “inhibition in Rac activity” value (Rac; attached cell population)?
Its value is 10-20%.

What about the “inhibition in Rac activity” value (Rac; detached population) of the same compound?
The value was 40-50%.

What about the “reduction in tumor growth” value ([7]; 1.0 mg/kg BW i.p. 3x a week) of the same compound?
The value was roughly 80%.

What about the “Optimal % Change in Tumor Size (% T/C)” value ([7]; 1 mg/kg BW i.p. 3x a week) of the same compound?
The value was 58%.

And the “Time in Days for Doubling of Tumor size, 2^1” value ([7]; 1 mg/kg BW)?
The value was 10 days.

And the “Time in Days for Doubling of Tumor size, 2^2” value ([7]; 1 mg/kg BW)?
The value was 30 days.

And the “Time in Days for Doubling of Tumor size, 2^3” value ([7]; 1 mg/kg BW)?
The value was 57 days.

And the “Time in Days for Doubling of Tumor size, 2^4” value ([7]; 1 mg/kg BW)?
Its value is “never reached”.

What about the “reduction in tumor growth” value ([7]; 10 mg/kg BW i.p. 3x a week) of the same compound?
Its value is roughly 95%.

And the “Optimal % Change in Tumor Size (% T/C)” value ([7]; 10 mg/kg BW i.p. 3x a week)?
The value was 9%.

What about the “reduction of mammary fat pad tumor size” value ([7]; 10 mg/kg BW, by 2 months) of the same compound?
The value was 91%.

What about the “Time in Days for Doubling of Tumor size, 2^1” value ([7]; 10 mg/kg BW) of the same compound?
Its value is 11 days.

What about the “Time in Days for Doubling of Tumor size, 2^2” value ([7]; 10 mg/kg BW) of the same compound?
Its value is 30 days.

And the “Time in Days for Doubling of Tumor size, 2^3” value ([7]; 10 mg/kg BW)?
The value was “never reached”.

What about the “Time in Days for Doubling of Tumor size, 2^4” value ([7]; 10 mg/kg BW) of the same compound?
Its value is “never reached”.

What about the “inhibition of mammary tumor growth and metastasis” value ([7]; immunocompromised mice) of the same compound?
Its value is roughly 90%.

What about the “effect on STAT3 activity” value (STAT3) of the same compound?
Its value is “decreased STAT3 activity”.

And the “inhibition of Cdc42 activity” value (Cdc42 [8]; 250 nM, listed as MBQ-167, […])?
Its value is 85%.

What about the inhibition at […] (Cdc42 [8]; MDA-MB-231, 250 nM) of the same compound?
Its inhibition at […] is 78%.

What about the “inhibition of tumor growth” value ([9]; 1.0 mg/kg BW i.p. 3x a week) of the same compound?
Its value is 90%.

And the “inhibition of tumor growth” value ([9]; 5.0 mg/kg BW i.p. 3x a week)?
The value was 95%.

What about the “inhibition of tumor growth” value ([9]; 10 mg/kg BW i.p. 3x a week) of the same compound?
Its value is 100%.

And the “effect on Rho activity” value (Rho)?
The value was “did not affect; also recorded: does not affect”.
